Experimental data from PMC6934184, “Selective DNA-PKcs inhibition extends the therapeutic index of localized radiotherapy and chemotherapy” (The Journal of Clinical Investigation, 2019).

Molecular target: T1, DMPK (Homo sapiens, UniProt Q09013)
T1 construct: purchased Thermo Fisher Scientific (Life Technologies) SelectScreen
Assay: SelectScreen LanthaScreen
Type: binding
Settings: read-out: % displacement
Procedure, shortened: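 Percent values come from Thermo SelectScreen profiling of NU5455, combining activity and binding assays. CSF1R was run in Z'LYTE format at Km app ATP, and CAMK1 in Adapta format with ATP listed at 10.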

T1 sequence (Q09013 whole entry): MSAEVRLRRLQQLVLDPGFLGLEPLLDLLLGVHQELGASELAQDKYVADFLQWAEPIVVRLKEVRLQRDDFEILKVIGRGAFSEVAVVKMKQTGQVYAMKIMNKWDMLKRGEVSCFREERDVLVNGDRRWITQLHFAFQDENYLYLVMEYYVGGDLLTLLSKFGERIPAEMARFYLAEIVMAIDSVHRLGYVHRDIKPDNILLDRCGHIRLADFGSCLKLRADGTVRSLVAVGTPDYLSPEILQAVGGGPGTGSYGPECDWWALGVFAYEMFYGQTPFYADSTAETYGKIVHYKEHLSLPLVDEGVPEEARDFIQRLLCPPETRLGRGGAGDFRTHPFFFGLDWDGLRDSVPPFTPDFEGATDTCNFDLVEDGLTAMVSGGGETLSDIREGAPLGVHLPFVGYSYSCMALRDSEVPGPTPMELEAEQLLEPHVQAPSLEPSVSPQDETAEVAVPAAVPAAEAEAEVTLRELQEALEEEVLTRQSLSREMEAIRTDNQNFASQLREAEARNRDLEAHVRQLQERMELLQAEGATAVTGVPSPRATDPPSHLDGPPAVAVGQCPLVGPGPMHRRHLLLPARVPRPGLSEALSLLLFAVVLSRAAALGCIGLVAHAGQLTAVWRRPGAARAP

Question: `CN(C(=O)CN1CCOCC1)c1ccc2sc3c(-c4cccc5c(=O)cc(N6CC7CCC(C6)O7)oc45)cccc3c2c1` [NU5455] was tested. Which inhibition at 1 µM did it give?
Answer: -1.5%
